For orientation: melting point means the temperature of the solid-liquid transition. Regarding `Cl.O=C1[C@H]2CCCC[C@H]2C(=O)N1CCCCN1CCC(c2noc3cc(F)ccc23)CC1`, the melting point was 229 to 231 °C.
As for `CC(=O)OCCN1CCC(c2noc3cc(F)ccc23)CC1.O=C(O)/C=C/C(=O)O`, the figure is 154 to 155 °C.
For `COCCN1CCC(c2noc3cc(F)ccc23)CC1.O=C(O)/C=C/C(=O)O`, the melting point fell in the range of 157 to 158 °C.
For the molecule `CC(=O)OCCCCN1CCC(c2noc3cc(F)ccc23)CC1.O=C(O)/C=C/C(=O)O`, the melting point lay within 142 to 143 °C.
Consider `O=C(O)/C=C/C(=O)O.OCCCCN1CCC(c2noc3cc(F)ccc23)CC1`, for which the melting point lay within 131 to 132 °C.
`Fc1ccc2c(C3CCN(CCC4OCCCO4)CC3)noc2c1.O=C(O)/C=C/C(=O)O` came in with a melting point of 161 to 162 °C.
`CCCCCCCCCC(=O)NCCN1CCC(c2noc3cc(F)ccc23)CC1.O=C(O)/C=C/C(=O)O` yielded a melting point of 108 to 110 °C.
In turn, `CC(=O)NCCN1CCC(c2noc3cc(F)ccc23)CC1.O=C(O)/C=C/C(=O)O` displayed a melting point of 132 to 133 °C.
As for `CC(=O)OCCNCCN1CCC(c2noc3cc(F)ccc23)CC1.O=C(O)/C=C/C(=O)O`, the figure is 116 to 118 °C; as for `C[C@@H](CO)CN1CCC(c2noc3cc(F)ccc23)CC1.O=C(O)/C=C/C(=O)O`, 114 to 115 °C; as for `CC(=O)OC[C@H](C)CN1CCC(c2noc3cc(F)ccc23)CC1.O=C(O)/C=C/C(=O)O`, 118 to 120 °C.
As for `CC(C)(CO)CN1CCC(c2noc3cc(F)ccc23)CC1.O=C(O)/C=C/C(=O)O`, the figure is 144 to 145 °C.
Molecule `CC(C)(O)CCN1CCC(c2noc3cc(F)ccc23)CC1.O=C(O)/C=C/C(=O)O` came in with a melting point of 156 to 158 °C.
`CCOC(=O)CCN1CCC(c2noc3cc(F)ccc23)CC1.O=C(O)/C=C/C(=O)O` gave a melting point of 135 to 136 °C.
The molecule `CCOC(C)c1ccc(OCCCN2CCC(c3noc4cc(F)ccc34)CC2)c(OC)c1.Cl` (stereo not shown) yielded a melting point of 139 to 141 °C.
In turn, `CCc1ccc(OCCCN2CCC(c3noc4cc(F)ccc34)CC2)cc1OC.Cl` came in with a melting point of 150 to 152 °C.
`CC(=O)c1ccc(O)c(OC/C=C/CN2CCC(c3noc4cc(F)ccc34)CC2)c1.Cl` showed a melting point of 208 to 210 °C.
Molecule `Cl.O=C1[C@H]2CCCC[C@H]2C(=O)N1CCCN1CCC(c2noc3cc(F)ccc23)CC1` came in with a melting point of 242 to 245 °C.
Molecule `Cl.Cl.NCCCCN1CCC(c2noc3cc(F)ccc23)CC1` returned a melting point of 234 to 237 °C.
The result for `Cl.Cl.NCCCN1CCC(c2noc3cc(F)ccc23)CC1` [1-(3-Aminopropyl)-4-(6-fluoro-1,2-benzisoxazol-3-yl)-piperidine dihydrochloride] reads 231 to 234 °C; that for `COc1cc(C(C)=O)ccc1OCCCN1CCC(c2nsc3cc(F)ccc23)CC1.Cl` [1-[4-[3-[4-(6-Fluoro-1,2-benzisothiazol-3-yl)-1-piperidinyl]propoxy]-3-methoxyphenyl]ethanone hydrochloride], 221 to 223 °C; that for `CCCCCCCCCC(=O)OCCCCN1CCC(c2noc3cc(F)ccc23)CC1.O=C(O)/C=C/C(=O)O` [4-[4-(6-Fluoro-1,2-benzisoxazol-3-yl)-1-piperidinyl]butyl decanoate fumarate], 109 to 110 °C.
`OCCCN1CCC(c2noc3cc(F)ccc23)CC1` [6-Fluoro-3-[1-(3-hydroxypropyl)-4-piperidinyl]-1,2-benzisoxazole] yielded a melting point of 140 to 142 °C.
The result for `COc1cc(C(C)=O)ccc1OC/C=C\CN1CCC(c2noc3cc(F)ccc23)CC1` [(Z)-1-[4-[[4-[4-(6-Fluoro-1,2-benzisoxazol-3-yl)-1-piperidinyl]-2-butenyl]oxy]-3-methoxyphenyl]ethanone] reads 57 to 59 °C; that for `COc1cc(C(C)=O)ccc1OCCCN1CCC(c2nsc3ccccc23)CC1` [Example 10, 1-[4-[3-[4-(1,2-Benzisothiazol-3-yl)-1-piperidinyl]-propoxy]-3-methoxyphenyl]ethanone], 93 to 96 °C.
Molecule `COc1cc(C(C)=O)ccc1OCCCN1CCN(c2n[nH]c3cc(F)ccc23)CC1` [Example 12, 1-[4-[3-[4-(6-Fluoro-1H-indazol-3-yl)-1-piperazinyl]-propoxy]-3-methoxyphenyl]ethanone] registered a melting point of 135 to 137 °C.
For the molecule `COc1cc(C(C)=O)ccc1OCCCN1CCC(c2n[nH]c3ccccc23)CC1` [Example 14, 1-[4-[3-[4-(1H-Indazol-3-yl)-1-piperidinyl]propoxy]-3-methoxyphenyl]ethanone], the melting point is 171 to 173 °C.
As for `COc1cc(C(C)=O)ccc1OCCCCN1CCC(c2n[nH]c3ccccc23)CC1` [Example 20, 1-[4-[4-[4(1H-indazol-3-yl)-1-piperidinyl]butoxy]-3-methoxyphenyl]ethanone], the figure is 133 to 135 °C; as for `COc1cc(C(C)=O)ccc1OCCCN1CCC(c2n[nH]c3cc(F)ccc23)CC1` [Example 28, 1-[4-[3-[4-(6-Fluoro-1H-indazol-3-yl)-1-piperidinyl]-propoxy]-3-methoxyphenyl]ethanone], 202 to 204 °C; as for `COc1cc(C(C)=O)ccc1OCCCCN1CCN(c2n[nH]c3cc(Cl)ccc23)CC1` [Example 36, 1-[4-[4-[4-(6-Chloro-1H-indazol-3-yl)-1-piperazinyl]butoxy]-3-methoxyphenyl]ethanone], 189 to 191 °C.
`COc1cc(C(C)=O)ccc1OCCN1CCN(c2nsc3ccccc23)CC1` [Example 39, 1-[4-[2-[4-(1,2-Benzisothiazol-3-yl)-1-piperazinyl]ethoxy]-3-methoxyphenyl]ethanone]: the melting point was in the range of 98 to 100 °C.
Consider `COc1cc(C(C)=O)ccc1OCCN1CCN(c2n[nH]c3cc(Cl)ccc23)CC1` [Example 41, 1-[4-[2-[4-(6-Chloro-1H-indazol-3-yl)-1-piperazinyl]ethoxy]-3-methoxyphenyl]ethanone], for which the melting point lay in the range of 154 to 156 °C.
`COc1cc(C(C)=O)ccc1OCCCCN1CCC(c2nsc3ccccc23)CC1` [Example 46, 1-[4-[4-[4-(1,2-Benzisothiazol-3-yl)-1-piperidinyl]butoxy]-3-methoxyphenyl]ethanone] registered a melting point of 78 to 80 °C.
With `CC(=O)Nc1ccccc1OCCCN1CCC(c2noc3cc(F)ccc23)CC1` [Example 61, N-[2-[3-[4-(6-fluoro-1,2-benzoisoxazol-3-yl)-1-piperidinyl]propoxy]phenyl]acetamide], the melting point lay in the range of 118 to 120 °C.
As for `Nc1cccc(OCCCN2CCC(c3noc4cc(F)ccc34)CC2)c1` [Example 71, 3-[3-[4-(6-Fluoro-1,2-benzisoxazol-3-yl)-1-piperidinyl]propoxy]aniline], the melting point lay in the range of 115 to 117 °C.
Molecule `COc1ccc(NC(C)=O)cc1OCCCN1CCC(c2nsc3cc(F)ccc23)CC1` [Example 74, N-[3-[3-[4-(6-Fluoro-1,2-benzisothiazol-3-yl)-1-piperidinyl]propoxy]-4-methoxyphenyl]acetamide] showed a melting point of 109 to 111 °C.
In turn, `COc1cc(C(C)=O)ccc1OC/C=C/CN1CCC(c2noc3cc(F)ccc23)CC1` [Example 81, (E)-1-[4-[[4-[4-(6-Fluoro-1,2-benzisoxazol-3-yl)-1-piperidinyl]-2-butenyl]oxy]-3-methoxyphenyl]ethanone] had a melting point of 91 to 93 °C.

The values are drawn from patent USRE39198E1, “Heteroarylpiperidines, pyrrolidines and piperazines and their use as antipsychotics and analgesics” (Aventis Pharmaceuticals Inc., priority 1989, dated 2006).
